Experimental data reported in US20230212222A1 (ANYGEN CO., LTD., priority 2020, published 2023).
Square brackets hold non-standard residues; d marks the D form. Peptide text beside a SMILES is read from it. * marks the point of attachment. His(Trt) = N[C@@H](Cc1cn(C(c2ccccc2)(c2ccccc2)c2ccccc2)cn1)C(=O)O; dHis(Trt) = N[C@H](Cc1cn(C(c2ccccc2)(c2ccccc2)c2ccccc2)cn1)C(=O)O; His(τ-CHPh2) = N[C@@H](Cc1cn(C(c2ccccc2)c2ccccc2)cn1)C(=O)O; Biotin = O=C1N[C@H]2[C@H](CS[C@H]2CCCCC(=O)*)N1; dPhe(4-CF3) = N[C@H](Cc1ccc(C(F)(F)F)cc1)C(=O)O; Tyr(3-NH2) = Nc1cc(C[C@H](N)C(=O)O)ccc1O; dPhe(4-Cl) = N[C@H](Cc1ccc(Cl)cc1)C(=O)O; dPhe(4-Me) = Cc1ccc(C[C@@H](N)C(=O)O)cc1; Octanoyl = CCCCCCCC(=O)*

Legend:
[1] = biological target: T1, GPR39 (Homo sapiens, UniProt O43194)
T1 sequence (O43194 1-453): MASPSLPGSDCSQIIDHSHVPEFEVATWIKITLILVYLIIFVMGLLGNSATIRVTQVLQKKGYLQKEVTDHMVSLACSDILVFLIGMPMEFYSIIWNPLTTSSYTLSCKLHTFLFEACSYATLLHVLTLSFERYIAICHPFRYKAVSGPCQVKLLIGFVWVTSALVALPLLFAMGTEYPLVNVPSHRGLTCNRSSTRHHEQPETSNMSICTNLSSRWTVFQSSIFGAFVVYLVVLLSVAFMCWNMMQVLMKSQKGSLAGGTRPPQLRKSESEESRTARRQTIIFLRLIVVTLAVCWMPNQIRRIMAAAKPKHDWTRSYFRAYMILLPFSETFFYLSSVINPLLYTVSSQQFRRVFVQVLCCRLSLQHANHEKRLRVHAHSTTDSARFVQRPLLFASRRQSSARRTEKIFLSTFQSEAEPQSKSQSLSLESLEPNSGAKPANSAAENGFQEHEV
Method: (§1) Specifically, the fibroblast cell line CV-1 (1×10^5 cells/ml, Korea Cell Line Bank) was cultured in a 96 well cell culture plate for 24 hours, and then treated with GPR39 inserted into adenovirus and SRE (serum response element) luciferase at 50 MOI (multiplicity of infection) and 25 MOI virus for 3 hours, respectively, and then cultured for 24 hours.

[2] = biological target: T1, GPR39; experiment: luciferase assay system (SRE luciferase reporter gene) for GPR39 in CV-1 cells; conditions: EC50, CV-1 cells, GPR39 and SRE luciferase adenovirus, treated 6 hours, luminometer
Method: as §1

Row | SMILES | ECmax (-fold induction over basal) [1] | EC50 [2] [nM]
1 | CCCCCCCC(=O)NCCCC[C@H](NC(=O)[C@@H](N)Cc1cn(C(c2ccccc2)c2ccccc2)cn1)C(=O)N[C@H](Cc1ccc(C)cc1)C(=O)N[C@@H](Cc1ccc(O)c(N)c1)C(=O)O [HKFY-70, (S)-2-((R)-2-((S)-2-((S)-2-amino-3-(1-benzhydryl-1H-imidazol-4-yl)propanamido)-6-octanamidohexanamido)-3-(p-tolyl)propanamido)-3-(3-amino-4-hydroxyphenyl)propanoic acid] (H-[His(τ-CHPh2)]K(Octanoyl)[dPhe(4-Me)][Tyr(3-NH2)]-OH) | 10.1 ± 1.6 -fold induction over basal | 20 ± 1
2 | CCCCCCCC(=O)NCCCC[C@H](NC(=O)[C@H](N)Cc1cn(C(c2ccccc2)(c2ccccc2)c2ccccc2)cn1)C(=O)N[C@H](Cc1ccc(Cl)cc1)C(=O)N[C@H](Cc1ccc(O)cc1)C(=O)O [HKFY-14, ((R)-2-((S)-2-((R)-2-amino-3-(1-trityl-1H-imidazol-4-yl)propanamido)-6-octanamidohexanamido)-3-(4-chlorophenyl)propanoyl)-D-tyrosine] (H-[dHis(Trt)]K(Octanoyl)[dPhe(4-Cl)][dY]-OH) | 20.9 ± 1.4 -fold induction over basal | 20 ± 3
3 | CCCCCCCC(=O)NCCCC[C@H](NC(=O)[C@@H](N)Cc1c[nH]c(-c2ccccc2)n1)C(=O)N[C@H](Cc1ccc(C)cc1)C(=O)N[C@@H](Cc1ccc(O)cc1)C(=O)O [HKFY-57, ((R)-2-((S)-2-((S)-2-amino-3-(2-phenyl-1H-imidazol-4-yl)propanamido)-6-octanamidohexanamido)-3-(p-tolyl)propanoyl)-L-tyrosine] | 8.5 ± 2.3 -fold induction over basal | 260 ± 10
4 | CCCCCCCC(=O)NCCCC[C@H](NC(=O)[C@@H](N)Cc1cn(C(c2ccccc2)(c2ccccc2)c2ccccc2)cn1)C(=O)N[C@H](Cc1ccc(C(F)(F)F)cc1)C(=O)N[C@@H](Cc1ccc(O)cc1)C(=O)O [HKFY-76, ((R)-2-((S)-2-((S)-2-amino-3-(1-trityl-1H-imidazol-4-yl)propanamido)-6-octanamidohexanamido)-3-(4-(trifluoromethyl)phenyl)propanoyl)-L-tyrosine] (H-[His(Trt)]K(Octanoyl)[dPhe(4-CF3)]Y-OH) | 14.2 ± 3.75 -fold induction over basal | 7 ± 1
5 | CCCCCCCC(=O)NCCCC[C@H](NC(=O)[C@@H](N)Cc1cn(C(c2ccccc2)(c2ccccc2)c2ccccc2)cn1)C(=O)N[C@@H](Cc1ccccc1)C(=O)N[C@@H](Cc1ccc(O)cc1)C(=O)O [HKFY-1, N6-octanoyl-N2-(Nt-trityl-L-histidyl)-L-lysyl-L-phenylalanyl-L-tyrosine] (H-[His(Trt)]K(Octanoyl)FY-OH) | 20.51 ± 0.57 -fold induction over basal | 150 ± 10
6 | CCCCCCCC(=O)NCCCC[C@H](NC(=O)[C@H](Cc1cn(C(c2ccccc2)(c2ccccc2)c2ccccc2)cn1)NC(=O)CCCC[C@@H]1SC[C@@H]2NC(=O)N[C@@H]21)C(=O)N[C@@H](Cc1ccccc1)C(=O)N[C@@H](Cc1ccc(O)cc1)C(=O)O [HKFY-2, N6-octanoyl-N2-(Na-(5-((3aS,4S,6aR)-2-oxohexahydro-1H-thieno[3,4-d]imidazol-4-yl)pentanoyl)-Nt-trityl-L-histidyl)-L-lysyl-L-phenylalanyl-L-tyrosine] (Biotin-[His(Trt)]K(Octanoyl)FY-OH) | 15 ± 1.87 -fold induction over basal | 140 ± 70
7 | CCCCCCCC(=O)NCCCC[C@H](NC(=O)[C@H](N)Cc1cn(C(c2ccccc2)(c2ccccc2)c2ccccc2)cn1)C(=O)N[C@H](Cc1ccc(C)cc1)C(=O)N[C@@H](Cc1ccc(O)cc1)C(=O)O [HKFY-31, ((R)-2-((S)-2-((R)-2-amino-3-(1-trityl-1H-imidazol-4-yl)propanamido)-6-octanamidohexanamido)-3-(p-tolyl)propanoyl)-L-tyrosine] (H-[dHis(Trt)]K(Octanoyl)[dPhe(4-Me)]Y-OH) | 20.9 ± 2.51 -fold induction over basal | 20 ± 3
